The source of these data is patent publication US20250034216A1, “STEREOSELECTIVE COVALENT LIGANDS FOR ONCOGENIC AND IMMUNOLOGICAL PROTEINS” (The Scripps Research Institute, priority 2021, published 2025).

Holding throughout (assay): IA-DTB cysteine engagement
Assay type in all cases: binding

One assay addresses T1, ABHD16A_C205 (Homo sapiens, UniProt O95870).
T1 construct: endogenous in cells; host or cells: 22Rv1
T1 sequence (O95870 1-558): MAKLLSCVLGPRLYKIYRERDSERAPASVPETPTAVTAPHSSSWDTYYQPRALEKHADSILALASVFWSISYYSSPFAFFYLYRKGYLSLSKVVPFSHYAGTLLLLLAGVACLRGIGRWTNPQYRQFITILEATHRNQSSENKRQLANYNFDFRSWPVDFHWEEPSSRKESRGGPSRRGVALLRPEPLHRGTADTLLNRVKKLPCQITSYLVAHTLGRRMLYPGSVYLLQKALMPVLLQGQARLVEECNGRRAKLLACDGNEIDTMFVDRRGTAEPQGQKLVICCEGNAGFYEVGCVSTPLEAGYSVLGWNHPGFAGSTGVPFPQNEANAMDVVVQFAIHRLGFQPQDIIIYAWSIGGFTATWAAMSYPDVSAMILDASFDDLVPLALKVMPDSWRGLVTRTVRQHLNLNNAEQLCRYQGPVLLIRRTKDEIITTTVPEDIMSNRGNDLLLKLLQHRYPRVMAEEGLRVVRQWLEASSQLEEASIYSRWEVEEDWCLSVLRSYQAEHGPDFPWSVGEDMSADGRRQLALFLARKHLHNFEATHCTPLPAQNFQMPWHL
Particulars: 22Rv1 cells, relative to DMSO; for % engagement ABHD16A_205: 5 μM probe, 1 h (FIG. 5B); for % engagement ABHD16A_C205: 20 μM probe, 1 h. In outline: (§1)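 In-situ probe treatment of cells; lysate 2 mg/mL, IA-DTB 1 h RT; MeOH/CHCl3 precipitation, DTT/iodoacetamide, trypsin; streptavidin enrichment; TMT labeling, high-pH fractionation. Ratio = TMT reporter intensity / mean DMSO channels, median-normalized.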

A further assay has as its target T2, PDP1_C149 (Homo sapiens, UniProt Q9P0J1).
T2 construct: endogenous in cells; host or cells: 22Rv1
T2 sequence (Q9P0J1 72-537): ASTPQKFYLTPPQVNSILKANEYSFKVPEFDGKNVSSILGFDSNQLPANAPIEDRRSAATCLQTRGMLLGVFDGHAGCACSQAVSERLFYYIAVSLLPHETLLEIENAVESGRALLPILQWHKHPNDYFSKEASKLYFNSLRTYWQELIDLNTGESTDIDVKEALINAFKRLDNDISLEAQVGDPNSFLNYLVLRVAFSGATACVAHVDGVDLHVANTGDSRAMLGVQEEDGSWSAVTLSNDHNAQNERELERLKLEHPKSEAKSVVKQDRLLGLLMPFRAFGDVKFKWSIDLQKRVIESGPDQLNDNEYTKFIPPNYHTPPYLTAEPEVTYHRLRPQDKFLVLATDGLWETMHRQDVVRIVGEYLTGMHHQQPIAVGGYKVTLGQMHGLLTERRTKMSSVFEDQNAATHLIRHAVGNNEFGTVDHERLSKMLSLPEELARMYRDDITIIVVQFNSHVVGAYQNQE
Particulars: 22Rv1 cells, 20 μM probe, 1 h, relative to DMSO. Put shortly: as §1

A further assay has as its target T3, IFT43_C58 (Homo sapiens, UniProt Q96FT9).
T3 construct: endogenous in cells; host or cells: 22Rv1
T3 sequence (Q96FT9 1-208): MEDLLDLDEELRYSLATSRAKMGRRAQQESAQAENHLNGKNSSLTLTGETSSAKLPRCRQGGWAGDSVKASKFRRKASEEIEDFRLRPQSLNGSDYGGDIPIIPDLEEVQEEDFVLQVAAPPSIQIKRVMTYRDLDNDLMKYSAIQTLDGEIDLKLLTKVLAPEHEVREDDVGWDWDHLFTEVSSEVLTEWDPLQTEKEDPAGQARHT
Particulars: 22Rv1 cells, 20 μM probe, 1 h, relative to DMSO. Put shortly: as §1

As for `CC#CC(=O)N1C[C@H](c2ccc(Br)cc2)[C@@H]1C(=O)Nc1cccc2cccnc12` [MY-45B, (2R,3S)-3-(4-bromophenyl)-1-(but-2-ynoyl)-N-(quinolin-8-yl)azetidine-2-carboxamide], at ABHD16A_C205, the “% engagement ABHD16A_205” value is recorded as 62.50%.
In the case of `C=CC(=O)N1C[C@H](c2ccc(Br)cc2)[C@@H]1C(=O)Nc1cccc2cccnc12` [MY-1B, (2R,3S)-1-acryloyl-3-(4-bromophenyl)-N-(quinolin-8-yl)azetidine-2-carboxamide], on PDP1_C149, the “% engagement PDP1_C149” value is 37.25%. Moreover, the “% engagement IFT43_C58” value on IFT43_C58 was −17%. In addition, at ABHD16A_C205, the “% engagement ABHD16A_205” value worked out at 83.67% and the “% engagement ABHD16A_C205” value worked out at 80.25%.
On to `C=CC(=O)N1C[C@H](c2ccc(Br)cc2)[C@H]1C(=O)Nc1cccc2cccnc12` [MY-3B, (2S,3S)-1-acryloyl-3-(4-bromophenyl)-N-(quinolin-8-yl)azetidine-2-carboxamide], for which the “% engagement PDP1_C149” value at PDP1_C149 is 37.25%. In addition, the “% engagement IFT43_C58” value on IFT43_C58 is 71.5%. For the same molecule, on ABHD16A_C205, the “% engagement ABHD16A_C205” value was found to be 77.25%.
For `C=CC(=O)N1C[C@H](c2ccc(Br)cc2)[C@H]1C(=O)Nc1cccc2cccnc12` [MY-3A, (2S,3S)-1-acryloyl-3-(4-bromophenyl)-N-(quinolin-8-yl)azetidine-2-carboxamide], the “% engagement PDP1_C149” value at PDP1_C149 was 19.25%. For the same molecule, the “% engagement IFT43_C58” value at IFT43_C58 was 17%. In addition, the “% engagement ABHD16A_C205” value at ABHD16A_C205 is recorded as 73.25%.
Take `C=CC(=O)N1C[C@@H](c2ccc(Br)cc2)[C@H]1C(=O)Nc1cccc2cccnc12` [MY-1A, (2S,3R)-1-acryloyl-3-(4-bromophenyl)-N-(quinolin-8-yl)azetidine-2-carboxamide]: the “% engagement PDP1_C149” value at PDP1_C149 turned out to be 67%. Moreover, on IFT43_C58, the “% engagement IFT43_C58” value was determined as 28.5%. The “% engagement ABHD16A_C205” value on ABHD16A_C205 is 67.75%.
